Experimental data as given in patent US8343961B2, “Substituted heterocyclic compounds” (ArQule, Inc., priority 2009, dated 2013).

What was measured:
RET kinase = RET kinase (Homo sapiens, UniProt P07949); assay: RET Kinase Activity Assay; format: biochemical; conditions: read-out: Ret, % INH, at 30 uM
Description: (§1) The disclosed compounds were assayed for their ability to inhibit the activity of RET kinase. Nunc Maxwasorb plates were coated with streptavidin by overnight incubation with 100 μL per well of 1 μg/mL Streptavidin in DPBS. Prior to the start of the experiment, the plates were washed with TBST (3×200 μL) and blocked for at least 1 hour by adding 150 μL of 5% BSA/TBST. The plates were washed with TBST (3×200 4/well) and left dry immediately before the capture step.
The test articles and controls (Staurosporine and Sutent) were prepared using the following assay buffer @ 3× desired final concentration (50 mM […], 0.02 mg/mL BSA, 10 mM MgCl2, 0.1 mM Na3VO4, 1 mM EGTA, 75 μM ATP0.01% NP-40, 2 mM DTT in 10% glycerol/water). In a reaction plate, were added rapidly 20 μL test article (or control) and 20 μL RET (0.25 ng/4 final concentration). The plate was incubated for 15 minutes. To the reaction plate was added 20 μL of Pyk-2 (0.25 ng/4 final concentration). The plate was incubated at room temperature for one hour.
From the reaction plate, 50 μL was transferred to the streptavidin coated plate. The capture plate was incubated at room temperature for 30 minutes then washed 6× with TBST. To the capture plate was added 100 μL/well of Cell Signaling anti-phospho tyrosine at a dilution of 1:3000 in 2% BSA/TBST. The plate was incubated for one hour at room temperature then washed 6× with TBST. To the capture plate was added 100 μL/well of Alkaline Phosphatase Tagged Goat anti Mouse Antibody at a dilution of 1:4000 in 2% BSA/TBST. The plate was incubated for one hour at room temperature then washed 6× with TBST. The fluorescent readout was initiated by the addition of 100 μL/well of Attophos reagent (6 mg/10 mL). The reading was done on the Perkin Elmer Envision system.

Tec kinase = biological target: T1, Tec kinase (Homo sapiens, UniProt P42680); assay: Tec Kinase Activity Assay; format: biochemical; conditions: read-out: Tec % INH, at 30 uM
T1 sequence (P42680 1-631): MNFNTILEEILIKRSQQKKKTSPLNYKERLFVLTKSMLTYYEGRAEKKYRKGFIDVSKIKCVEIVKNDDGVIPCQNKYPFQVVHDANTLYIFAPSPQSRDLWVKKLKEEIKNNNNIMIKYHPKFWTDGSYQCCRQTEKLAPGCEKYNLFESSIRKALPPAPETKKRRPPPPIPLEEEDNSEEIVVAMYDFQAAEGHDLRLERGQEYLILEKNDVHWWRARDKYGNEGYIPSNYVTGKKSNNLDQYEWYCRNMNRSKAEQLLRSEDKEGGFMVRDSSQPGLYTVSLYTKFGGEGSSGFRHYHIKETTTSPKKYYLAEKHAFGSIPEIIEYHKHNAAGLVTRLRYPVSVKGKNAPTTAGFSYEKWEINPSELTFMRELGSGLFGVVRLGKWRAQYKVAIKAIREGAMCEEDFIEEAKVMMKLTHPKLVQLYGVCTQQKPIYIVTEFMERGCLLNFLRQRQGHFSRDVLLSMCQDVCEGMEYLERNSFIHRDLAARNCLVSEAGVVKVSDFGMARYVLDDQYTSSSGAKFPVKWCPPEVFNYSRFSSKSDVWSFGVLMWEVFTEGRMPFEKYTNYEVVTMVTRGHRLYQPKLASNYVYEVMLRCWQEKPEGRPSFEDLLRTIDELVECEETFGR
Description: as §1, with “Tec” for “RET”, “Maxisorb” for “Maxwasorb”, “μL/well)” for “4/well)”
The test articles and controls (Staurosporine and Sutent) were prepared using the following assay buffer @ 3× desired final concentration (50 mM Tris-HCl, 0.02 mg/mL BSA, 10 mM MgCl2, 0.1 mM Na3VO4, 1 mM EGTA, 75 μM ATP0.01% NP-40, 2 mM DTT in 10% glycerol/water). In a reaction plate were added rapidly 20 μL test article (or control) and 20 μL TEC 0.25 ng/4. The plate was incubated for 30 minutes. To the reaction plate was added 20 μL of Pyk-2.5 ng/μL. The plate was incubated at room temperature for two hours. From the reaction plate, 50 μL was transferred to the streptavidin coated plate. The capture plate was incubated at room temperature for 30 minutes then washed 6× with TBST. To the capture plate was added 100 μL/well of Cell Signaling anti-phospho tyrosine at a dilution of 1:3000 in 2% BSA/TBST. The plate was incubated for one hour at room temperature then washed 6× with TBST. To the capture plate was added 100 μL/well of Alkaline Phosphatase Tagged Goat anti Mouse Antibody at a dilution of 1:4000 in 2% BSA/TBST. The plate was incubated for one hour at room temperature then washed 6× with TBST. The fluorescent readout was initiated by the addition of 100 μL/well of Attophos reagent (6 mg/10 mL). The reading was done on the Perkin Elmer Envision system.

Chain of RET kinase (P07949 29-1114): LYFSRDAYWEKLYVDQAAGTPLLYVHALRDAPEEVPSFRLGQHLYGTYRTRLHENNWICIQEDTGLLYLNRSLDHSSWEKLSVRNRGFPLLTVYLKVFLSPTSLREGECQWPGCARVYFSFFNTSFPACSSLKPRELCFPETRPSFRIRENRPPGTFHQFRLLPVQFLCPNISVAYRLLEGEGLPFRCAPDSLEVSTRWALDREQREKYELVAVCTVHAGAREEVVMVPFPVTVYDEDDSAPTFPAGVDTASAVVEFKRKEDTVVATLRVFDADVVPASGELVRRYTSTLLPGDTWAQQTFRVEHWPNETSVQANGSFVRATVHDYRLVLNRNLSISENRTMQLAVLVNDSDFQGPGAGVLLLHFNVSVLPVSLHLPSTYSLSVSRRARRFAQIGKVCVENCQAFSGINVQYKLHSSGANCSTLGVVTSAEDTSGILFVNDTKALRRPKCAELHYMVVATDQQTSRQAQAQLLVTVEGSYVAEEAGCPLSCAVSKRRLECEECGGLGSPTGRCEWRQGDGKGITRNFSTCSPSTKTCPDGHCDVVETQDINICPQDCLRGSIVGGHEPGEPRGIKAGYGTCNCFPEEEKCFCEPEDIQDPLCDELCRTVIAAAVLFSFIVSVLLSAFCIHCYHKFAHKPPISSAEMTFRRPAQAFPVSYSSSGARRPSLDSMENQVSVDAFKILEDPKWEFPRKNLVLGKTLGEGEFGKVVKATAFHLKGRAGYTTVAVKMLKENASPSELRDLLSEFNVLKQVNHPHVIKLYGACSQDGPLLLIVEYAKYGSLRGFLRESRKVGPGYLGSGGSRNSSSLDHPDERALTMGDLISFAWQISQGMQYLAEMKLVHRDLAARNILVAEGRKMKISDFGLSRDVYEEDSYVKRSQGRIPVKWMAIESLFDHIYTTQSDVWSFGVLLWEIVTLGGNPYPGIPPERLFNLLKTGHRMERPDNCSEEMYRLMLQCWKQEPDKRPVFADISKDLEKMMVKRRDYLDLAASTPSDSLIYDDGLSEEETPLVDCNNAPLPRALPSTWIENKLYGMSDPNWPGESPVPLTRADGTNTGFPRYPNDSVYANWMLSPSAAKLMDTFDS

Row | Compound | inhibition at 30 µM (RET kinase) [%] | inhibition at 30 µM (Tec kinase) [%]
1 | COc1ccc(CN2CCN(c3nc(N)nc4[nH]cnc34)Cc3ccccc32)cc1OC [Compound 27, 6-[1-(3,4-dimethoxybenzyl)-1,2,3,5-tetrahydro-4H-1,4-benzodiazepin-4-yl]-9H-purin-2-amine] | < 50 | 50 to 79
2 | COc1ccc(CN2CCN(c3nc(N)nc4[nH]ncc34)Cc3ccccc32)cc1OC [Compound 28, 4-[1-(3,4-dimethoxybenzyl)-1,2,3,5-tetrahydro-4H-1,4-benzodiazepin-4-yl]-1H-pyrazolo[3,4-d]pyrimidin-6-amine] | < 50 | 50 to 79
3 | CC(C)(C)c1ccc(CN2CCN(c3nc(N)nc4[nH]cnc34)Cc3ccccc32)cc1 [Compound 29, 6-[1-(4-tert-butylbenzyl)-1,2,3,5-tetrahydro-4H-1,4-benzodiazepin-4-yl]-9H-purin-2-amine] | < 50 | < 50
4 | CC(C)(C)c1ccc(CN2CCN(c3nc(N)nc4[nH]ncc34)Cc3ccccc32)cc1 [Compound 30, 4-[1-(4-tert-butylbenzyl)-1,2,3,5-tetrahydro-4H-1,4-benzodiazepin-4-yl]-1H-pyrazolo[3,4-d]pyrimidin-6-amine] | 50 to 79 | 50 to 79
5 | Nc1nc(N2CCN(Cc3ccc(Cl)cc3Cl)c3ccccc3C2)c2nc[nH]c2n1 [Compound 31, 6-[1-(2,4-dichlorobenzyl)-1,2,3,5-tetrahydro-4H-1,4-benzodiazepin-4-yl]-9H-purin-2-amine] | < 50 | < 50
6 | Nc1nc(N2CCN(Cc3ccc(Cl)cc3Cl)c3ccccc3C2)c2cn[nH]c2n1 [Compound 32, 4-[1-(2,4-dichlorobenzyl)-1,2,3,5-tetrahydro-4H-1,4-benzodiazepin-4-yl]-1H-pyrazolo[3,4-d]pyrimidin-6-amine] | < 50 | 50 to 79
7 | Cc1cccc(CN2CCN(c3nc(N)nc4[nH]cnc34)Cc3ccccc32)c1 [Compound 33, 6-[1-(3-methylbenzyl)-1,2,3,5-tetrahydro-4H-1,4-benzodiazepin-4-yl]-9H-purin-2-amine] | 50 to 79 | < 50
8 | Cc1cccc(CN2CCN(c3nc(N)nc4[nH]ncc34)Cc3ccccc32)c1 [Compound 34, 4-[1-(3-methylbenzyl)-1,2,3,5-tetrahydro-4H-1,4-benzodiazepin-4-yl]-1H-pyrazolo[3,4-d]pyrimidin-6-amine] | < 50 | 50 to 79
9 | COc1ccc(OC)c(CN2CCN(c3nc(N)nc4[nH]cnc34)Cc3ccccc32)c1 [Compound 35, 6-[1-(2,5-dimethoxybenzyl)-1,2,3,5-tetrahydro-4H-1,4-benzodiazepin-4-yl]-9H-purin-2-amine] | < 50 | 50 to 79
10 | COc1ccc(OC)c(CN2CCN(c3nc(N)nc4[nH]ncc34)Cc3ccccc32)c1 [Compound 36, 4-[1-(2,5-dimethoxybenzyl)-1,2,3,5-tetrahydro-4H-1,4-benzodiazepin-4-yl]-1H-pyrazolo[3,4-d]pyrimidin-6-amine] | < 50 | 50 to 79
11 | Nc1nc(N2CCN(Cc3ccc(F)cc3F)c3ccccc3C2)c2nc[nH]c2n1 [Compound 37, 6-[1-(2,4-difluorobenzyl)-1,2,3,5-tetrahydro-4H-1,4-benzodiazepin-4-yl]-9H-purin-2-amine] | 50 to 79 | 50 to 79
12 | Nc1nc(N2CCN(Cc3ccc(F)cc3F)c3ccccc3C2)c2cn[nH]c2n1 [Compound 38, 4-[1-(2,4-difluorobenzyl)-1,2,3,5-tetrahydro-4H-1,4-benzodiazepin-4-yl]-1H-pyrazolo[3,4-d]pyrimidin-6-amine] | < 50 | 50 to 79
13 | Nc1nc(N2CCN(CCCc3cccc(F)c3)c3ccccc3C2)c2nc[nH]c2n1 [Compound 39, 6-{1-[3-(3-fluorophenyl)propyl]-1,2,3,5-tetrahydro-4H-1,4-benzodiazepin-4-yl}-9H-purin-2-amine] | 50 to 79 | < 50

Second part, the compound after the results:

Row | inhibition at 30 µM (RET kinase) [%] | inhibition at 30 µM (Tec kinase) [%] | Compound
14 | 50 to 79 | > 79 | Nc1nc(N2CCN(CCCc3ccccc3)c3ccccc3C2)c2nc[nH]c2n1 [Compound 40, 6-[1-(3-phenylpropyl)-1,2,3,5-tetrahydro-4H-1,4-benzodiazepin-4-yl]-9H-purin-2-amine]
15 | < 50 | 50 to 79 | Nc1nc(N2CCN(CCCc3ccccc3)c3ccccc3C2)c2cn[nH]c2n1 [Compound 41, 4-[1-(3-phenylpropyl)-1,2,3,5-tetrahydro-4H-1,4-benzodiazepin-4-yl]-1H-pyrazolo[3,4-d]pyrimidin-6-amine]
16 | < 50 | < 50 | Nc1nc(N2CCN(Cc3ccc(Cl)c(Cl)c3)c3ccccc3C2)c2nc[nH]c2n1 [Compound 42, 6-[1-(3,4-dichlorobenzyl)-1,2,3,5-tetrahydro-4H-1,4-benzodiazepin-4-yl]-9H-purin-2-amine]
17 | 50 to 79 | > 79 | Nc1nc(N2CCN(Cc3ccc(Cl)c(Cl)c3)c3ccccc3C2)c2cn[nH]c2n1 [Compound 43, 4-[1-(3,4-dichlorobenzyl)-1,2,3,5-tetrahydro-4H-1,4-benzodiazepin-4-yl]-1H-pyrazolo[3,4-d]pyrimidin-6-amine]
18 | < 50 | < 50 | Cc1ccc(CCCN2CCN(c3nc(N)nc4[nH]cnc34)Cc3ccccc32)cc1 [Compound 44, 6-{1-[3-(4-methylphenyl)propyl]-1,2,3,5-tetrahydro-4H-1,4-benzodiazepin-4-yl}-9H-purin-2-amine]
19 | 50 to 79 | > 79 | Cc1ccc(CCCN2CCN(c3nc(N)nc4[nH]ncc34)Cc3ccccc32)cc1 [Compound 45, 4-{1-[3-(4-methylphenyl)propyl]-1,2,3,5-tetrahydro-4H-1,4-benzodiazepin-4-yl}-1H-pyrazolo[3,4-d]pyrimidin-6-amine]
20 | 50 to 79 | < 50 | Nc1nc(N2CCN(Cc3ccc(F)c(F)c3)c3ccccc3C2)c2nc[nH]c2n1 [Compound 46, 6-[1-(3,4-difluorobenzyl)-1,2,3,5-tetrahydro-4H-1,4-benzodiazepin-4-yl]-9H-purin-2-amine]
21 | 50 to 79 | 50 to 79 | Nc1nc(N2CCN(Cc3ccc(F)c(F)c3)c3ccccc3C2)c2cn[nH]c2n1 [Compound 47, 4-[1-(3,4-difluorobenzyl)-1,2,3,5-tetrahydro-4H-1,4-benzodiazepin-4-yl]-1H-pyrazolo[3,4-d]pyrimidin-6-amine]
